Results: the supplement of paper PMC11061612

Key:
Palbociclib = compound: CC(=O)c1c(C)c2cnc(Nc3ccc(N4CCNCC4)cn3)nc2n(C2CCCC2)c1=O [Palbociclib]; conditions: max 10 µM
How it was run: (§1)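 Following 24 hours at 37°C and 5% CO2, cancer cell lines in 1536-well plates with 7.5 μl DMEM/F12 or RPMI and 10% FBS were dosed for 72 hours, final DMSO typically being 0.2%. CellTiter-Glo 2.0 luminescence, scaled between blank-well and DMSO-well means, gave the viability readout. Dose responses were fitted to a two-parameter logistic curve with a non-linear mixed effects model, and the single-agent IC50 was derived from this fit.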

Crizotinib = compound: C[C@@H](Oc1cc(-c2cnn(C3CCNCC3)c2)cnc1N)c1c(Cl)ccc(F)c1Cl [Crizotinib]; conditions: max 10 µM
How it was run: as §1

AZD8186 = compound: C[C@@H](Nc1cc(F)cc(F)c1)c1cc(C(=O)N(C)C)cc2c(=O)cc(N3CCOCC3)oc12 [AZD8186]; conditions: max 3 µM
How it was run: as §1

Trametinib = compound: CC(=O)Nc1cccc(-n2c(=O)n(C3CC3)c(=O)c3c(Nc4ccc(I)cc4F)n(C)c(=O)c(C)c32)c1 [Trametinib]; conditions: max 1 µM
How it was run: as §1

Doxorubicin = compound: COc1cccc2c1C(=O)c1c(O)c3c(c(O)c1C2=O)C[C@@](O)(C(=O)CO)C[C@@H]3O[C@H]1C[C@H](N)[C@H](O)[C@H](C)O1 [Doxorubicin]; conditions: max 1 µM
How it was run: as §1

Alisertib = compound: COc1cc(Nc2ncc3c(n2)-c2ccc(Cl)cc2C(c2c(F)cccc2OC)=NC3)ccc1C(=O)O [Alisertib]; conditions: max 10 µM
How it was run: as §1

AZD0156 = compound: CN(C)CCCOc1ccc(-c2ccc3ncc4c(c3c2)n(C2CCOCC2)c(=O)n4C)cn1 [AZD0156]; conditions: max 3 µM
How it was run: as §1

AZD5991 = compound: Cc1c2c(nn1C)CSCc1cc(n(C)n1)CSc1cc(c3ccccc3c1)OCCCc1c(C(=O)O)n(C)c3c-2c(Cl)ccc13 [AZD5991]; conditions: max 1 µM
How it was run: as §1

Taselisib = compound: Cc1nc(-c2cn3c(n2)-c2ccc(-c4cnn(C(C)(C)C(N)=O)c4)cc2OCC3)n(C(C)C)n1 [Taselisib]; conditions: max 10 µM
How it was run: as §1

AZD4320 = compound: CN(CC[C@H](CSC1=CC=CC=C1)NC2=C(C=C(C=C2)S(=O)(=O)NC(=O)C3=CC=C(C=C3)N4CCC(CC4)[C@H](C5=CC=CC=C5C6=CC=C(C=C6)Cl)O)S(=O)(=O)C(F)(F)F)CCO [AZD4320]; conditions: max 1 µM
How it was run: as §1

Olaparib = compound: O=C(c1cc(Cc2n[nH]c(=O)c3ccccc23)ccc1F)N1CCN(C(=O)C2CC2)CC1 [Olaparib]; conditions: max 10 µM
How it was run: as §1

Dasatinib = compound: CC1=C(C(=CC=C1)Cl)NC(=O)C2=CN=C(S2)NC3=CC(=NC(=N3)C)N4CCN(CC4)CCO [Dasatinib]; conditions: max 2 µM
How it was run: as §1

SG3199 = compound: CC1=CN2[C@@H](C1)C=NC3=CC(=C(C=C3C2=O)OC)OCCCCCOC4=C(C=C5C(=C4)N=C[C@@H]6CC(=CN6C5=O)C)OC [SG3199]; conditions: max 0.001 µM
How it was run: as §1

Capivasertib = compound: C1CN(CCC1(C(=O)N[C@@H](CCO)C2=CC=C(C=C2)Cl)N)C3=NC=NC4=C3C=CN4 [Capivasertib]; conditions: max 10 µM
How it was run: as §1

AZD6738 = compound: C[C@@H]1COCCN1C2=NC(=NC(=C2)C3(CC3)[S@](=N)(=O)C)C4=C5C=CNC5=NC=C4 [AZD6738]; conditions: max 10 µM
How it was run: as §1

Gefitinib = compound: COc1cc2ncnc(Nc3ccc(F)c(Cl)c3)c2cc1OCCCN1CCOCC1 [Gefitinib]; conditions: max 10 µM
How it was run: as §1

AZD2811 = compound: CCN(CCO)CCCOc1ccc2c(Nc3cc(CC(=O)Nc4cccc(F)c4)[nH]n3)ncnc2c1 [AZD2811]; conditions: max 1 µM
How it was run: as §1

Selumetinib = compound: Cn1cnc2c(F)c(Nc3ccc(Br)cc3Cl)c(C(=O)NOCCO)cc21 [Selumetinib]; conditions: max 10 µM
How it was run: as §1

Savolitinib = compound: C[C@@H](c1ccc2nccn2c1)n1nnc2ncc(-c3cnn(C)c3)nc21 [Savolitinib]; conditions: max 1 µM
How it was run: as §1

AZD1390 = compound: CC(C)n1c(=O)n(C)c2cnc3cc(F)c(-c4ccc(OCCCN5CCCCC5)nc4)cc3c21 [AZD1390]; conditions: max 0.3 µM
How it was run: as §1

Prexasertib = compound: COc1cccc(OCCCN)c1-c1cc(Nc2cnc(C#N)cn2)n[nH]1 [Prexasertib]; conditions: max 1 µM
How it was run: as §1

AZD5153 = compound: COc1nnc2ccc(N3CCC(c4ccc(OCCN5CCN(C)C(=O)[C@H]5C)cc4)CC3)nn12 [AZD5153]; conditions: max 1 µM
How it was run: as §1

AZD7648 = compound: Cc1cc2ncnn2cc1Nc1ncc2c(n1)n(C1CCOCC1)c(=O)n2C [AZD7648]; conditions: max 10 µM
How it was run: as §1

Venetoclax = compound: CC1(C)CCC(CN2CCN(c3ccc(C(=O)NS(=O)(=O)c4ccc(NCC5CCOCC5)c([N+](=O)[O-])c4)c(Oc4cnc5[nH]ccc5c4)c3)CC2)=C(c2ccc(Cl)cc2)C1 [Venetoclax]; conditions: max 1 µM
How it was run: as §1

SN-38 = compound: CCc1c2c(nc3ccc(O)cc13)-c1cc3c(c(=O)n1C2)COC(=O)[C@]3(O)CC [SN-38]; conditions: max 0.3 µM
How it was run: as §1

Lapatinib = compound: CS(=O)(=O)CCNCc1ccc(-c2ccc3ncnc(Nc4ccc(OCc5cccc(F)c5)c(Cl)c4)c3c2)o1 [Lapatinib]; conditions: max 10 µM
How it was run: as §1

AZD1775 = compound: C=CCn1c(=O)c2cnc(Nc3ccc(N4CCN(C)CC4)cc3)nc2n1-c1cccc(C(C)(C)O)n1 [AZD1775]; conditions: max 3 µM
How it was run: as §1

Cell Line	IC50, cell viability 72 h (Palbociclib)	IC50, cell viability 72 h (Crizotinib)	IC50, cell viability 72 h (AZD8186)	IC50, cell viability 72 h (Trametinib)	IC50, cell viability 72 h (Doxorubicin)	IC50, cell viability 72 h (Alisertib)	IC50, cell viability 72 h (AZD0156)	IC50, cell viability 72 h (AZD5991)	IC50, cell viability 72 h (Taselisib)	IC50, cell viability 72 h (AZD4320)	IC50, cell viability 72 h (Olaparib)	IC50, cell viability 72 h (Dasatinib)	IC50, cell viability 72 h (SG3199)	IC50, cell viability 72 h (Capivasertib)	IC50, cell viability 72 h (AZD6738)	IC50, cell viability 72 h (Gefitinib)	IC50, cell viability 72 h (AZD2811)	IC50, cell viability 72 h (Selumetinib)	IC50, cell viability 72 h (Savolitinib)	IC50, cell viability 72 h (AZD1390)	IC50, cell viability 72 h (Prexasertib)	IC50, cell viability 72 h (AZD5153)	IC50, cell viability 72 h (AZD7648)	IC50, cell viability 72 h (Venetoclax)	IC50, cell viability 72 h (SN-38)	IC50, cell viability 72 h (Lapatinib)	IC50, cell viability 72 h (AZD1775)
A704 (Kidney Carcinoma)	> 10000 nM	> 10000 nM	1540 nM	> 1000 nM	> 1000 nM	5350 nM	> 3000 nM	> 1000 nM	> 10000 nM	> 1000 nM	> 10000 nM	110 nM	> 1 nM	> 10000 nM	> 10000 nM	> 10000 nM	> 1000 nM	> 10000 nM	> 1000 nM	> 300 nM	> 1000 nM	538 nM	> 10000 nM	> 1000 nM	274 nM	8790 nM	2510 nM
BT-20 (Breast Carcinoma)	> 10000 nM	> 10000 nM	> 3000 nM	202 nM	> 1000 nM	9860 nM	> 3000 nM	> 1000 nM	297 nM	> 1000 nM	> 10000 nM	> 2000 nM	> 1 nM	1210 nM	> 10000 nM	> 10000 nM	> 1000 nM	> 10000 nM	> 1000 nM	> 300 nM	319 nM	> 1000 nM	> 10000 nM	> 1000 nM	57.7 nM	> 10000 nM	1440 nM
BV-173 (Chronic Myelogenous Leukemia)	3940 nM	497 nM	> 3000 nM	57.2 nM	46.5 nM	38.5 nM	> 3000 nM	30.6 nM	> 10000 nM	5.26 nM	3250 nM	< 2 nM	> 1 nM	4140 nM	260 nM	> 10000 nM	6.95 nM	2330 nM	> 1000 nM	> 300 nM	4.79 nM	65.1 nM	> 10000 nM	50.4 nM	1.42 nM	4020 nM	294 nM
DG-75 (Burkitt's Lymphoma)	1250 nM	6980 nM	> 3000 nM	> 1000 nM	453 nM	> 10000 nM	> 3000 nM	> 1000 nM	> 10000 nM	> 1000 nM	> 10000 nM	> 2000 nM	> 1 nM	> 10000 nM	1390 nM	> 10000 nM	> 1000 nM	> 10000 nM	> 1000 nM	> 300 nM	33.5 nM	24.4 nM	> 10000 nM	> 1000 nM	38.7 nM	8870 nM	424 nM
